Tests used:
[1] = absorption spectrum (maximum absorption wavelength, molar extinction coefficient); format: physicochemical
[2] = singlet oxygen efficiency test, reference rose bengal; format: physicochemical

SMILES | maximum absorption wavelength [1] | molar extinction coefficient [1] | singlet oxygen yield [2]
COCCOCCOCCOCCOCCOCCOCCOCCOCCOCCOCCOCCOCCC(=O)OC1CCC(Nc2c3c4c5c(c(OC)c(=O)c6c(O)cc(OC)c(c7c(OC)cc(NC8CCC(OC(=O)CCOCCOCCOCCOCCOCCOCCOCCOCCOCCOCCOCCOCCOC)CC8)c(c2=O)c74)c65)C(C(C)=O)C(C)=C3)CC1 (stereo not drawn) [HB-17c-PEG12] | 632 nm | 33,500 M^−1cm^−1 | 38%
COc1c(O)c2c(=O)cc(OC)c3c4c(OC)cc(=O)c5c(NCC6CCC(C(=O)OCC[N+](C)(C)C)CC6)c(NCC6CCC(C(=O)OCC[N+](C)(C)C)CC6)c6c(c(c1CC(C)=C6)c23)c54 (stereo not drawn) [HC-13a-C2-N^+] | 622 nm | 30,500 M^−1cm^−1 | 30%
COc1c2c3c4c(c(NCCOCCO)c(=O)c5c(O)cc(OC)c(c6c(OC)cc(NCCOCCO)c(c1=O)c63)c54)C=C(C)C2 [HC-1d] | 626 nm | 28,500 M^−1cm^−1 | 32%
COc1c(O)c2c(=O)cc(OC)c3c4c(OC)cc(=O)c5c(NC6CCC(O)C6)c(NC6CCC(O)C6)c6c(c(c1C(C(C)=O)C(C)=C6)c23)c54 (stereo not drawn) [HB-20a] | 624 nm | 24,500 M^−1cm^−1 | 20%
COc1c2c3c4c(c(NC5CCCC(C(=O)O)C5)c(=O)c5c(NC6CCCC(C(=O)O)C6)cc(OC)c(c6c(OC)cc(O)c(c1=O)c63)c54)C=C(C)C2C(C)=O (stereo not drawn) [HB-15c] | 621 nm | 28,000 M^−1cm^−1 | 26%
COc1c2c3c4c(c(NC(CO)C(=O)O)c(=O)c5c(NC(CO)C(=O)O)cc(OC)c(c6c(OC)cc(O)c(c1=O)c63)c54)C=C(C)C2C(C)=O (stereo not drawn) [HB-23c] | 622 nm | 22,000 M^−1cm^−1 | 22%
COc1c(NCCO)c2c(=O)cc(OC)c3c4c(OC)cc(=O)c5c(O)c(NCCO)c6c(c(c1CC(C)=C6)c23)c54 [HC-2b] | 624 nm | 27.500 M⁻¹ cm⁻¹ | 33%
COc1c2c3c4c(c(NC5CCC(C(=O)O)CC5)c(=O)c5c(NC6CCC(C(=O)O)CC6)cc(OC)c(c6c(OC)cc(O)c(c1=O)c63)c54)C=C(C)C2C(C)=O (stereo not drawn) [HB-14c] | 621 nm | 28,000 M^−1cm^−1 | 26%
COc1c(O)c2c(=O)cc(OC)c3c4c(OC)cc(=O)c5c(NCCS(=O)(=O)O)c(NCCS(=O)(=O)O)c6c(c(c1C(C(C)=O)C(C)=C6)c23)c54 (stereo not drawn) [HB-11a-C2-SO3H] | 620 nm | 30,000 M^−1cm^−1 | 32%
COCCOCCOCCOCCOCCOCCOC(=O)C1CCC(Nc2c3c4c5c(c(OC)c(=O)c6c(NC7CCC(C(=O)OCCOCCOCCOCCOCCOCCOC)C7)cc(OC)c(c7c(OC)cc(O)c(c2=O)c74)c65)C(C(C)=O)C(C)=C3)C1 (stereo not drawn) [HB-19d-PEG6] | 636 nm | 31,000 M^−1cm^−1 | 32%
COc1c(O)c2c(=O)cc(OC)c3c4c(OC)cc(=O)c5c(NCCOCCO)c(NCCOCCO)c6c(c(c1CC(C)=C6)c23)c54 [HC-1a] | 628 nm | 28,000 M^−1cm^−1 | 36%
COc1c(O)c2c(=O)cc(OC)c3c4c(OC)cc(=O)c5c(NC(CS)C(=O)O)c(NC(CS)C(=O)O)c6c(c(c1C(C(C)=O)C(C)=C6)c23)c54 (stereo not drawn) [HB-25a] | 625 nm | 21,500 M^−1cm^−1 | 18%
COc1c(O)c2c(=O)cc(OC)c3c4c(OC)cc(=O)c5c(NC(CC(=O)O)C(=O)O)c(NC(CC(=O)O)C(=O)O)c6c(c(c1C(C(C)=O)C(C)=C6)c23)c54 (stereo not drawn) [HB-27a] | 621 nm | 20,500 M^−1cm^−1 | 18%
COCCOCCOCCOCCOC(=O)C1CCC(CNc2c(O)c3c(=O)cc(OC)c4c5c(OC)cc(=O)c6c(NCC7CCC(C(=O)OCCOCCOCCOCCOC)CC7)c(OC)c7c(c(c2C=C(C)C7)c34)c65)CC1 (stereo not drawn) [HC-13b-PEG4] | 624 nm | 30,000 M^−1cm^−1 | 32%
COc1c(NCS(=O)(=O)O)c2c(=O)cc(OC)c3c4c(OC)cc(=O)c5c(O)c(NCCCS(=O)(=O)O)c6c(c(c1CC(C)=C6)c23)c54 [HC-45b] | 618 nm | 21,500 M^−1cm^−1 | 20%
COCCOCCOCCOCCOCCOCCOCCC(=O)OC1CCC(Nc2c3c4c5c(c(OC)c(=O)c6c(NC7CCC(OC(=O)CCOCCOCCOCCOCCOCCOCCOC)C7)cc(OC)c(c7c(OC)cc(O)c(c2=O)c74)c65)C(C(C)=O)C(C)=C3)C1 (stereo not drawn) [HB-20d-PEG6] | 630 nm | 30,500 M^−1cm^−1 | 32%
COc1c(NCCCC(=O)OCCCC[N+](C)(C)C)c2c(=O)cc(OC)c3c4c(OC)cc(=O)c5c(O)c(NCCCC(=O)OCCCC[N+](C)(C)C)c6c(c(c1CC(C)=C6)c23)c54 [HC-8b-C4-N^+] | 625 nm | 31,000 M^−1cm^−1 | 32%

SMILES | maximum absorption wavelength [1] | molar extinction coefficient [1] | singlet oxygen yield [2]
COc1c(O)c2c(=O)cc(OC)c3c4c(OC)cc(=O)c5c(NCCO)c(NCCO)c6c(c(c1CC(C)=C6)c23)c54 [HC-2a] | 627 nm | 28.500 M⁻¹ cm⁻¹ | 32%
COc1c(O)c2c(=O)cc(OC)c3c4c(OC)cc(=O)c5c(NCCSCCOCCO)c(NCCSCCOCCO)c6c(c(c1C(C(C)=O)C(C)=C6)c23)c54 (stereo not drawn) [HB-6a-PEG1] | 622 nm | 30,500 M^−1cm^−1 | 28%
COc1c2c3c4c(c(NCCNCCOCCOCCOCCOCCO)c(=O)c5c(NCCNCCOCCOCCOCCOCCO)cc(OC)c(c6c(OC)cc(O)c(c1=O)c63)c54)C=C(C)C2C(C)=O (stereo not drawn) [HB-5c-PEG4] | 628 nm | 31,500 M^−1cm^−1 | 35%
COc1c2c3c4c(c(NCCC5CCC(O)CC5)c(=O)c5c(NCCC6CCC(O)CC6)cc(OC)c(c6c(OC)cc(O)c(c1=O)c63)c54)C=C(C)C2C(C)=O (stereo not drawn) [HB-18c] | 624 nm | 23,500 M^−1cm^−1 | 23%
COc1c(O)c2c(=O)cc(OC)c3c4c(OC)cc(=O)c5c(NCC6CCC(C(=O)O)CC6)c(NCC6CCC(C(=O)O)CC6)c6c(c(c1C(C(C)=O)C(C)=C6)c23)c54 (stereo not drawn) [HB-13a] | 621 nm | 28,500 M^−1cm^−1 | 28%
CCNc1c(NC2CCCC2)c2c(=O)c(SCCO)c(OC)c3c4c(OC)cc(=O)c5c(O)c(OC)c6c(c(c1C=C(C)C6C(C)=O)c23)c54 (stereo not drawn) [HB-S-44a] | 628 nm | 21,500 M^−1cm^−1 | 20%
COc1c(NC(C(=O)O)C(C)C)c2c(=O)cc(OC)c3c4c(OC)cc(=O)c5c(O)c(NC(C(=O)O)C(C)C)c6c(c(c1C(C(C)=O)C(C)=C6)c23)c54 (stereo not drawn) [HB-22b] | 618 nm | 21,000 M^−1cm^−1 | 19%
COc1c2c3c4c(c(NCCCCS(=O)(=O)O)c(=O)c5c(O)cc(OC)c(c6c(OC)cc(NCCCCS(=O)(=O)O)c(c1=O)c63)c54)C=C(C)C2C(C)=O (stereo not drawn) [HB-11d-C4-SO3H] | 626 nm | 30,500 M^−1cm^−1 | 32%
COCCOCCOCCOCCOCCOCCOCCOCCOC(=O)C1CCC(CNc2c3c4c5c(c(OC)c(=O)c6c(O)cc(OC)c(c7c(OC)cc(NCC8CCC(C(=O)OCCOCCOCCOCCOCCOCCOCCOCCOC)CC8)c(c2=O)c74)c65)CC(C)=C3)CC1 (stereo not drawn) [HC-13c-PEG8] | 628 nm | 32,500 M^−1cm^−1 | 38%
CCNc1c(NC2CCCC2)c2c(=O)cc(OC)c3c4c(OC)cc(=O)c5c(O)c(OC)c6c(c(c1C=C(C)C6C(C)=O)c23)c54 (stereo not drawn) [HB-44a] | 628 nm | 21,500 M^−1cm^−1 | 20%
COc1c2c3c4c(c(NCC5CCC(C(=O)OCCCC[P+](c6ccccc6)(c6ccccc6)c6ccccc6)CC5)c(=O)c5c(O)cc(OC)c(c6c(OC)cc(NCC7CCC(C(=O)OCCCC[P+](c8ccccc8)(c8ccccc8)c8ccccc8)CC7)c(c1=O)c63)c54)C=C(C)C2 (stereo not drawn) [HC-30d-C4-PPh3^+] | 630 nm | 32,500 M^−1cm^−1 | 31%
COCCOCCOCCOCCOCCOCCOCCC(=O)N1CCC(CNc2c(O)c3c(=O)cc(OC)c4c5c(OC)cc(=O)c6c(NCC7CCN(C(=O)CCOCCOCCOCCOCCOCCOCCOC)CC7)c(OC)c7c(c(c2C=C(C)C7C(C)=O)c34)c65)CC1 (stereo not drawn) [HB-31b-PEG6] | 622 nm | 31,000 M^−1cm^−1 | 38%
COc1c2c3c4c(c(NCCC5CCC(O)CC5)c(=O)c5c(O)cc(OC)c(c6c(OC)cc(NCCC7CCC(O)CC7)c(c1=O)c63)c54)C=C(C)C2C(C)=O (stereo not drawn) [HC-18d] | 622 nm | 23,500 M^−1cm^−1 | 20%
COc1c2c3c4c(c(NCCNCCOCCO)c(=O)c5c(O)c(Br)c(OC)c(c6c(OC)cc(NCCNCCOCCO)c(c1=O)c63)c54)C=C(C)C2C(C)=O (stereo not drawn) [HB-5d-Br-PEG1] | 624 nm | 29,500 M^−1cm^−1 | 32%
CCNNc1c2c3c4c(c(OC)c(=O)c5c(O)cc(OC)c(c6c(OC)cc(NNCC)c(c1=O)c63)c54)C(C(C)=O)C(C)=C2 (stereo not drawn) [HB-36c] | 621 nm | 33,500 M^−1cm^−1 | 35%
COCCOCCC(=O)OCCOCCNc1c2c3c4c(c(OC)c(=O)c5c(O)cc(OC)c(c6c(OC)cc(NCCOCCOC(=O)CCOCCOC)c(c1=O)c63)c54)CC(C)=C2 [HC-1c-PEG1] | 625 nm | 32,500 M^−1cm^−1 | 34%

Source: patent publication US11439707B2, “Hypocrellin derivative substituted both in a peri-position and in 2-position by amino, preparation method, and application thereof” (priority 2017, dated 2022)
